The conditions of data set [1]: orally administered, women; cited from earlier work.
Data set [2] in a line: Particle size distribution by laser diffraction. The following applies: SHR0302 used in Example 1, Malvern Hydro MV, ethyl acetate dispersion. The class given is physicochemical. The source says:
In the pharmaceutical compositions of the present invention, the active ingredient is present as small particles. Particle size of the drug can be assessed using laser diffraction methods. Laser diffraction is recognized by standards and guidance agencies including ISO and ASTM and is widely used to determine particle size distributions. In conducting the assessment, the sample is passed through a laser beam, which results in laser light scattered at a range of angles. Detectors placed at fixed angles measure the intensity of light scattered at that position. A mathematical model is then applied to generate a particle size distribution. The particle size values reported herein are determined by using a liquid or wet dispersion method.
In particle size determinations, the median value is defined as the value where half of the population resides above this point, and half resides below this point. For particle size distributions the median is called the D50. The D50 is the size that splits the distribution with half above and half below this diameter. The distribution width may also be characterized by citing one, two or three values on the x-axis, typically some combination of the D10, D50, and D90. The D50, the median, has been defined above as the diameter where half of the population lies below this value. Similarly, 90 percent of the distribution lies below the D90, and 10 percent of the population lies below the D10.
A pharmaceutical composition comprising 3% SHR0302 suspended in dimethicone was prepared. The primary particle size distribution of the SHR0302 is characterized by a D10 value of less than about 0.25 μm; a D50 value of less than about 0.7 μm; and a D90 value of less than about 5 μm. The pharmaceutical composition was a transparent solution due to the particles being too small to scatter visible light. A Malvern Metasizer Model 3000 using the Hydro MV dispersion unit was used to determine the particle size distribution profile of SHR0302. […]

Data set [3] concerns the target JAK1 (Homo sapiens, UniProt P23458). The settings on record: in words; cited from earlier work.

Sequence of JAK1 (P23458 whole entry): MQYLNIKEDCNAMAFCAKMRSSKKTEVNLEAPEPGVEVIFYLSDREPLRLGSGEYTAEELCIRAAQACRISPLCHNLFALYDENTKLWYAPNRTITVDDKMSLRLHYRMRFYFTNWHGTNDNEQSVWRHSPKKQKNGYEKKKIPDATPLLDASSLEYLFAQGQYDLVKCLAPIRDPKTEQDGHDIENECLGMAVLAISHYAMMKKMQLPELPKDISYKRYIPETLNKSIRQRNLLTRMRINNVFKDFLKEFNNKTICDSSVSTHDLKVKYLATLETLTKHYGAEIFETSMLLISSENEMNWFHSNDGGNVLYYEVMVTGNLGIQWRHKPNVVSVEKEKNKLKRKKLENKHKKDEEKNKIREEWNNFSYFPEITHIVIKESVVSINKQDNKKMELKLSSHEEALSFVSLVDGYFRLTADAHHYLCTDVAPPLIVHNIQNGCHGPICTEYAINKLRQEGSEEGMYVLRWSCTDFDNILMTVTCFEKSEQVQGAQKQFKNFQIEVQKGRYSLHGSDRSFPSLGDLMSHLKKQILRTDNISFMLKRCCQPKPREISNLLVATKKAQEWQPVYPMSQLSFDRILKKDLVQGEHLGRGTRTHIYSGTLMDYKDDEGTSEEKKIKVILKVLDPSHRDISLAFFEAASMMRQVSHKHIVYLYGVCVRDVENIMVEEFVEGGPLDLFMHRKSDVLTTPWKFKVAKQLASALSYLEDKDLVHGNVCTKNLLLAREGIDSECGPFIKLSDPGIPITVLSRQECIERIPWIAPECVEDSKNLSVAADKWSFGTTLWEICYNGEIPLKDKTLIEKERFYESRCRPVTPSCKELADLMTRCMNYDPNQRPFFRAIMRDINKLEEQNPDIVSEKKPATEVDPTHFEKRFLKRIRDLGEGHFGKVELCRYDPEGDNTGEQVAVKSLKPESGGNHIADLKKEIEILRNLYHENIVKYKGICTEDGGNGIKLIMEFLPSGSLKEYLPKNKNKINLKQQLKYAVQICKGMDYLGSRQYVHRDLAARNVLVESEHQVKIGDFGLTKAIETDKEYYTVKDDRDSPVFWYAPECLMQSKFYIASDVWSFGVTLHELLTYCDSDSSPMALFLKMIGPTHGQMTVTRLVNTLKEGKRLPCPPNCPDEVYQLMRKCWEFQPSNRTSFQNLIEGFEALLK

For the molecule `CC(=O)S[C@@H]1CC2=CC(=O)CC[C@]2(C)[C@H]2CC[C@@]3(C)[C@@H](CC[C@@]34CCC(=O)O4)[C@H]12` [spironolactone, 17-hydroxy-7α-mercapto-3-oxo-17α-pregn-4-ene-21-carboxylic acid γ-lactone acetate], in data set [1], the “efficacy in treatment of acne” value is “efficacious”.

For `COc1nsc(NC(=O)N2C[C@H]3C[C@H](N(C)c4ncnc5[nH]ccc45)C[C@H]3C2)n1` [SHR0302, (3aR,5S,6aS)-N-(3-methoxyl-1,2,4-thiadiazol-5-yl)-5-(methyl(7H-pyrrolo[2,3-d]pyrimidin-4-yl)amino)hexahydrocyclopenta[c]pyrrole-2(1H)-carboxamide], in data set [2], the “primary particle size distribution D10” value is given as “less than 0.25 μm”, the “primary particle size distribution D50” value was “less than 0.7 μm” and the “primary particle size distribution D90” value is on record as “less than 5 μm”. Besides, in data set [3], the “inhibition of JAK1” value was “potent” and the “selectivity for JAK1 over JAK2” value is given as “high selectively for JAK1 over JAK2”.

The values above are taken from patent publication US20240382502A1, “COMPOSITIONS AND METHODS FOR DEEP DERMAL DRUG DELIVERY” (ARCUTIS BIOTHERAPEUTICS, INC., priority 2020, published 2024).
